Test results: patent US20220062310A1, “[…] PATIENTS WITH OBSESSIVE-COMPULSIVE DISORDER” (YALE UNIVERSITY, priority 2020, published 2022)

Key:
[1] = test system: mice; details: cited from earlier work
[2] = test system: patients with treatment resistant OCD; test: Double-blind, placebo controlled study of psilocybin in OCD (NCT03356483): acute-YBOCS / YBOCS
[3] = test system: patients with treatment resistant OCD; test: Same OCD study: depression scores (Montgomery-Asberg Depression Rating Scale); format: in vivo, human; details: single dose 0.25 mg/kg; scores not high in most subjects
Text: (§1) Research Materials and Measures: Participants can complete self-report and clinician-administered measures of OCD symptoms, anxiety, depression, quality of life, and spirituality at baseline, prior to psilocybin session, and during all designated study visits. […]

[4] = test system: humans; details: oral doses of up to 0.6 mg/kg; cited from earlier work
[5] = test system: rats; details: cited from earlier work
[6] = non-medical use as mushrooms; cited from earlier work
[7] = test system: study participants; details: cited from earlier work
[8] = test system: OCD symptoms; details: low doses (2 mg-4 mg); cited from earlier work
[9] = test system: patients with treatment resistant OCD; test: Same OCD study: state and trait anxiety scores (STAI); format: in vivo, human; details: single dose 0.25 mg/kg
Text: as §1

[10] = test system: humans; test: Estimated lethal dose of pure psilocybin in humans; details: 0.25 mg/kg versus LD50 in nonhuman animals and in humans
[11] = test system: serotonin 5-hydroxytryptamine (5-HT) receptors; details: after conversion in the body to psilocin; most affinity to 5-HT2A and 5-HT2C, lesser to 5-HT1A; cited from earlier work
[12] = test system: humans; details: pure psilocybin; cited from earlier work

Compound: CN(C)CCc1c[nH]c2cccc(OP(=O)(O)O)c12 [psilocybin, 3-(2-dimethylaminoethyl)-1H-indol-4-yl] dihydrogen phosphate]
- LD50 [1]: 285 mg/kg
- improvement in OCD symptoms after psilocybin in subjects who had previously received placebo (FIG. 4) ([2]; open-label, one of three subjects, 12 weeks follow-up): robust and lasting improvement in symptoms
- persistence of the improvement in symptoms ([2]; single dose 0.25 mg/kg, the three improved subjects): 12 weeks
- improvement in OCD symptoms (YBOCS, FIG. 2 and 3) ([2]; single dose 0.25 mg/kg, three of the subjects receiving psilocybin): robust improvement in symptoms
- acute-YBOCS score (M) at 48-hours after drug administration ([2]; single oral dose 0.25 mg/kg, N=5, baseline M=25.5 (18 to 29), SD=11.52, t(3)=2.71, p=0.036): 15
- depression scores (MADRS, FIG. 5) [3]: improved after psilocybin in several subjects
- serious adverse events [4]: no serious adverse events
- LD50 [5]: 285 mg/kg
- share of drug-related emergency department visits that mention it [6]: 0.1%
- reactions requiring pharmacological intervention ([7]; 30 mg psilocybin): no reactions requiring pharmacological intervention occurred
- rates of prolonged psychiatric symptoms of any kind following exposure ([7]; healthy study participants): 0.08-0.09%
- participants with distress sufficient to contact the researchers ([7]; meta-analysis, 110 research participants (1 participant)): 0.9%
- participants who endorsed negative changes in psychological well-being ([7]; meta-analysis, 110 research participants): 7 participants
- duration of common acute side effects ([7]; most effects): last no longer than six hours
- adverse events associated with drug administration ([7]; over 2000 participants under controlled conditions): no reports of the occurrence of a significance of adverse events
- subjects with persistent perceptual symptoms associated with HPPD ([7]; review of studies 1999 to 2008, mild, brief, resolved within three days): one subject (out of 110)
- acute effect on OCD symptoms [8]: acutely attenuated OCD symptoms even after low doses
- state anxiety scores (FIG. 6) [9]: improved in those subjects whose OCD symptoms also improved
- full study dose relative to LD50 [10]: over 100 times smaller
- action at 5-HT receptors [11]: partial agonist
- best estimate of a lethal dose [12]: about 19 grams
